The values that follow come from patent US11970474B2, “Substituted benzodiazoles and use thereof in therapy” (THOMAS HELLEDAYS STIFTELSE FÖR MEDICINSK FORSKNING, priority 2018, dated 2024).

This test deals with OGG1 (Homo sapiens (Human), UniProt O15527). Briefly: In vitro OGG1 activity assay. The class given is biochemical. To be noted: 800 pM OGG1 enzyme, 2 nM human APEX1, 10 nM 8-oxoA:C substrate. A digest of the protocol: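 Fluorescence-release assay on a duplex oligonucleotide carrying an OGG1 substrate base beside a fluorophore, quenched from the complementary strand. Excess APEX1 cleaves the abasic site left by base excision, melting the duplex and unquenching the fluorophore. Compounds in DMSO were dispensed before enzyme and substrate, and fluorescein signal was read.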
OGG1, sequence (O15527 whole entry): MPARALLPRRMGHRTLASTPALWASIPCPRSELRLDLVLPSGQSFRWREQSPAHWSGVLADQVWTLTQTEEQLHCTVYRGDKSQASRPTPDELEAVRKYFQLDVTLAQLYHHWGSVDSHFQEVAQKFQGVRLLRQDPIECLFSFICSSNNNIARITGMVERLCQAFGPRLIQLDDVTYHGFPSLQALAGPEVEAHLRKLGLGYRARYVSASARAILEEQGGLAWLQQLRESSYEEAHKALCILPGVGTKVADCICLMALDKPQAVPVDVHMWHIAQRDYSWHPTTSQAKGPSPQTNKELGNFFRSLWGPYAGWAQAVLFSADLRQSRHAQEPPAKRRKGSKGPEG

What is called IC50 is the concentration needed to halve the response being measured. Higher therefore signals lower potency. Molecule `O=c1[nH]c2c(Br)cccc2n1[C@H]1CC[C@@H](C(=O)Nc2cccc(C(F)(F)F)c2)CC1` [Example 141, (Cis)-4-(4-bromo-2-oxo-2,3-dihydro-1H-1,3-benzodiazol-1-yl)-N-[3-(trifluoromethyl)phenyl]cyclohexane-1-carboxamide] gave a half-maximal inhibitory concentration (IC50) of 5480 nM.

The molecule `N#Cc1ccc(NC(=O)[C@H]2CC[C@@H](n3c(=O)[nH]c4c(Br)cccc43)CC2)cc1Cl` [Example 125, (Cis)-4-(4-bromo-2-oxo-2,3-dihydro-1H-1,3-benzodiazol-1-yl)-N-(3-chloro-4-cyanophenyl)cyclohexane-1-carboxamide] showed an IC50 of 3620 nM.

In the case of `COc1cc(NC(=O)N2CCC(n3c(=O)[nH]c4c(-c5cccnc5)cccc43)CC2)ccc1Cl` [Example 102, N-(4-chloro-3-methoxyphenyl)-4-[2-oxo-4-(pyridin-3-yl)-2,3-dihydro-1H-1,3-benzodiazol-1-yl]piperidine-1-carboxamide], the IC50 is 2770 nM.

Consider `COc1cc(NC(=O)[C@H]2CC[C@@H](n3c(=O)[nH]c4c(C(=O)N5CCCC5C(N)=O)cccc43)CC2)ccc1C` (stereo partly drawn) [Example 278, 1-{2-Oxo-1-[cis-4-[(3-methoxy-4-methylphenyl)carbamoyl]cyclohexyl]-2,3-dihydro-1H-1,3-benzodiazole-4-carbonyl}pyrrolidine-2-carboxamide], for which the IC50 amounted to 221 nM.

`NCc1ccc(-c2cccc3c2[nH]c(=O)n3C2CCN(C(=O)Nc3ccc(Cl)c(Cl)c3)CC2)cc1` [Example 33, 4-{4-[4-(Aminomethyl)phenyl]-2-oxo-2,3-dihydro-1H-1,3-benzodiazol-1-yl}-N-(3,4-dichlorophenyl)piperidine-1-carboxamide] came in with an IC50 of 2530 nM. This IC50 lies about 11-fold higher than the previous one.

As to `COc1ccc(NC(=O)[C@H]2CC[C@@H](n3c(=O)[nH]c4c(OC)cccc43)CC2)cc1F` [Example 207, Cis-N-(3-fluoro-4-methoxyphenyl)-4-(4-methoxy-2-oxo-2,3-dihydro-1H-1,3-benzodiazol-1-yl)cyclohexane-1-carboxamide], the IC50 was 73.6 nM.

In turn, `O=C(Nc1ccc(I)c(Cl)c1)N1CCC(n2c(=O)[nH]c3cc(Cl)ccc32)CC1` [Example 17, 4-(5-Chloro-2-oxo-2,3-dihydro-1H-1,3-benzodiazol-1-yl)-N-(3-chloro-4-iodophenyl)piperidine-1-carboxamide] gave an IC50 of 1420 nM. Against the preceding molecule, the IC50 is about 19-fold higher.

`CN(C)c1ccc(NC(=O)[C@H]2CC[C@@H](n3c(=O)[nH]c4c(Br)cccc43)CC2)cc1` [Example 200, Cis-4-(4-bromo-2-oxo-2,3-dihydro-1H-1,3-benzodiazol-1-yl)-N-[4-(dimethylamino)phenyl]cyclohexane-1-carboxamide] registered an IC50 of 631 nM. Compared with the last molecule, the IC50 is about 2.3-fold lower.

For the molecule `COc1ccc(NC(=O)N2CCC(n3c(=O)[nH]c4c(N(C)CCN(C)C)cccc43)CC2)cc1Cl` [Example 106, N-(3-chloro-4-methoxyphenyl)-4-(4-{[2-(dimethylamino)ethyl](methyl)amino}-2-oxo-2,3-dihydro-1H-1,3-benzodiazol-1-yl)piperidine-1-carboxamide], half-maximal inhibition (IC50) was put at 1750 nM.

In turn, `COc1ncc(NC(=O)[C@H]2CC[C@@H](n3c(=O)[nH]c4c(OC)cccc43)CC2)cc1C` [Example 208, Cis-4-(4-methoxy-2-oxo-2,3-dihydro-1H-1,3-benzodiazol-1-yl)-N-(6-methoxy-5-methylpyridin-3-yl)cyclohexane-1-carboxamide] yielded an IC50 of 115 nM.

In turn, `COc1cc(NC(=O)N2CCC(n3c(=O)[nH]c4c(-c5cncc(N)c5)cccc43)CC2)ccc1Cl` [Example 104, 4-[4-(5-Aminopyridin-3-yl)-2-oxo-2,3-dihydro-1H-1,3-benzodiazol-1-yl]-N-(4-chloro-3-methoxyphenyl)piperidine-1-carboxamide] showed an IC50 of 2280 nM. This IC50 lies about 20-fold higher than the previous one.

Take `O=c1[nH]c2c(Br)cccc2n1[C@H]1CC[C@@H](C(=O)Nc2cccc(Cl)c2)CC1` [Example 138, (Cis)-4-(4-bromo-2-oxo-2,3-dihydro-1H-1,3-benzodiazol-1-yl)-N-(3-chlorophenyl)cyclohexane-1-carboxamide]: half-maximal inhibition (IC50) was put at 2010 nM.

For the molecule `Cc1ccc(NC(=O)[C@H]2CC[C@@H](n3c(=O)[nH]c4c(Br)cccc43)CC2)cn1` [Example 190, Cis-4-(4-bromo-2-oxo-2,3-dihydro-1H-1,3-benzodiazol-1-yl)-N-(6-methylpyridin-3-yl)cyclohexane-1-carboxamide], 467 nM corresponded to half-maximal inhibition (IC50).

`O=C(Nc1ccc(I)cc1)N1CCC(n2c(=O)[nH]c3c(-c4ccc[nH]4)cccc32)CC1` [Example 25, N-(4-iodophenyl)-4-[2-oxo-4-(1H-pyrrol-2-yl)-2,3-dihydro-1H-1,3-benzodiazol-1-yl]piperidine-1-carboxamide] yielded an IC50 of 765 nM.

As to `CC(=O)Nc1cccc2c1[nH]c(=O)n2[C@H]1CC[C@@H](C(=O)Nc2ccc3cc[nH]c3c2)CC1` [Example 290, Cis-4-(4-acetamido-2-oxo-2,3-dihydro-1H-1,3-benzodiazol-1-yl)-N-(1H-indol-6-yl)cyclohexane-1-carboxamide], it took 239 nM to reach half-maximal inhibition (IC50).

`COc1cc(NC(=O)[C@H]2CC[C@@H](n3c(=O)[nH]c4c(C(=O)NCC5CCCN5)cccc43)CC2)ccc1C` (stereo partly drawn) [Example 254, 2-Oxo-N-[(pyrrolidin-2-yl)methyl]-1-[cis-4-[(3-methoxy-4-methylphenyl)carbamoyl]cyclohexyl]-2,3-dihydro-1H-1,3-benzodiazole-4-carboxamide] yielded an IC50 of 0.21 nM. Compared with the last molecule, the IC50 is about 1100-fold lower.

As for `O=c1[nH]c2c(Br)cccc2n1[C@H]1CC[C@@H](C(=O)Nc2ccc(OC(F)(F)F)c(Cl)c2)CC1` [Example 134, (Cis)-4-(4-bromo-2-oxo-2,3-dihydro-1H-1,3-benzodiazol-1-yl)-N-[3-chloro-4-(trifluoromethoxy)phenyl]cyclohexane-1-carboxamide], the IC50 was 2740 nM.

Regarding `COc1cc(NC(=O)[C@H]2CC[C@@H](n3c(=O)[nH]c4c(NC(=O)c5cn(C)cn5)cccc43)CC2)ccc1C` [Example 319, 1-Methyl-N-{2-oxo-1-[cis-4-[(3-methoxy-4-methylphenyl)carbamoyl]cyclohexyl]-2,3-dihydro-1H-1,3-benzodiazol-4-yl}-1H-imidazole-4-carboxamide], the IC50 came to 20.3 nM.

On to `O=C(Nc1ccc(Cl)cc1)N1CCC(n2c(=O)[nH]c3cc(Cl)ccc32)CC1` [Example 1, 4-(5-Chloro-2-oxo-2,3-dihydro-1H-1,3-benzodiazol-1-yl)-N-(4-chlorophenyl) piperidine-1-carboxamide], for which the IC50 was 2800 nM.

For the molecule `CNCCN(C)C(=O)c1cccc2c1[nH]c(=O)n2[C@H]1CC[C@@H](C(=O)Nc2ccc(C)c(OC)c2)CC1` [Example 266, N-Methyl-N-[2-(methylamino)ethyl]-2-oxo-1-[cis-4-[(3-methoxy-4-methylphenyl)carbamoyl]cyclohexyl]-2,3-dihydro-1H-1,3-benzodiazole-4-carboxamide], the IC50 was determined as 8.16 nM.

Regarding `CCCNc1cccc2c1[nH]c(=O)n2C1CCN(C(=O)Nc2ccc(OC)c(Cl)c2)CC1` [Example 175, N-(3-Chloro-4-methoxyphenyl)-4-[2-oxo-4-(propylamino)-2,3-dihydro-1H-1,3-benzodiazol-1-yl]piperidine-1-carboxamide], the midpoint of inhibition, the IC50, lay at 2620 nM.

The molecule `Cc1cc(NC(=O)[C@H]2CC[C@@H](n3c(=O)[nH]c4c(Br)cccc43)CC2)no1` [Example 169, (Cis)-4-(4-bromo-2-oxo-2,3-dihydro-1H-1,3-benzodiazol-1-yl)-N-(5-methyl-1,2-oxazol-3-yl)cyclohexane-1-carboxamide] had an IC50 of 9090 nM.
